Experimental data: patent US6509377B1, “Use of a 2-hydroxy-4-trifluoromethylbenzoic acid derivatives as inhibitors of the activation of the nuclear transcription factor NF-κB” (J. Uriach & Cia, S.A., priority 1999, dated 2003)

Tests used:
NF-κB [1] = assay: Activation of NF-κB induced by LPS in human PBMC (EMSA); assay type: cell-based; details: human PBMCs, HTB 1-3 mM, 1 hour, then LPS 10 μg/ml 10 minutes
Method: Mononuclear cells (PBMC) were obtained from blood of healthy donors from the Hospital de Sant Pau (Barcelona) who had not taken any antiinflammatory drug during a period of not less than 2 weeks before blood extraction. Starting from a volume of about 80 ml of heparinized human blood (10 U/ml), this was diluted (1:1) with PBS (pH 7.4; Dulbecco) without calcium, magnesium nor sodium bicarbonate.
15 ml of Ficoll solution (d=1.077 at 20° C.; Biochrom KG) were placed in 50-ml Falcon tubes. To this solution a volume of about 25 ml per tube of the blood previously diluted with PBS was carefully added and the tubes were then centrifuged at 1,200 g for 20 minutes. Mononuclear cells concentrate on a whitish interphase between the plasma and the Ficoll solution. This interphase was collected with a Pasteur pipette and was diluted 1:1 with PBS. It was then centrifuged at 300 g for 10 min. The resulting pellet was resuspended in 50 ml PBS and was again centrifuged at 200 g for 10 min, in order to remove platelet contamination. […]
Prior to the various treatments, cell viability was determined by the Trypan Blue exclusion assay. […]
After incubation, PBMCs were washed twice with PBS and the degree of activation (binding to DNA) of the transcription factor NF-κB was determined using the EMSA assay, described in detail in Example 1.

[2] = Cell viability of U-937 cells (EZ4U); assay type: cell-based; details: human, U-937 histiocytic lymphoma cells, read-out: Percentage of cell viability
Method: (§1) Several cell lines obtained from the American Type Culture Collection (ATCC) were cultured at 37° C. and under a 5% CO2 atmosphere. Each cell line was grown in an appropriate culture medium and within the exponential phase (Table I).
(§2) For the cell viability studies 24-well plates were used, where 0.5×10^6 cells/ml (for 24-hour studies), 0.25×10^6 cells/ml (for 48-hour studies) or 0.125×10^6 cells/ml (for 72-hour studies) were incubated. Next, different concentrations of HTB (1-3 mM) were added and cells were incubated for different time periods (37° C., 5% CO2). After incubation, the supernatant from each well was extracted, and cells were washed with culture medium without fetal calf serum. Then, the supernatant was extracted and 200 μl culture medium without fetal calf serum were added to each well. In addition, 20 μl substrate were added to determine cell viability. This method is based on the ability of viable cells to transform the colourless substrate into a coloured substance that is excreted to the supernatant (EZ4U, Biomedica Gmbh.). After incubating cells for 1 hour at 37° C. and 5% CO2, 200 μl supernatant were collected and the absorbance was measured at 450 nm.
(§3) The absorbance was also determined at 620 nm as a measure of the existing non-specific value.

[3] = test system: human peripheral blood mononuclear cells (PBMC); assay: Cell viability controls of human PBMC (MTT assay); assay type: cell-based; details: Example 3, HTB 1-3 mM with LPS, 3 mM without LPS
Method: Prior to the various treatments, cell viability was determined by the Trypan Blue exclusion assay. Cells were diluted at a concentration of 2.5 million/ml with RPMI medium containing 10% fetal calf serum and were incubated (37° C., 5% CO2) 1 hour in 6-well plates (2 ml/well, 5 million PBMC) without adding any drug (control) or adding HTB (1-3 mM). Next, cells were incubated for further 10 minutes in the presence of 10 μg/ml E.coli lipopolysaccharide (LPS, 026:B6 serotype; Sigma). After incubation, a sample (100 μl) was taken in order to carry out a cell count as well as cell viability controls by measuring the ability of mitochondrial dehydrogenases to convert the soluble tetrazolium salt, MTT the insoluble product formazan (MTT assay). Cells were also incubated with HTB (3 mM) in the absence of LPS. In all cases, cell viability was equal to or higher than 95%.
Cells were diluted at a concentration of 2.5 million/ml with RPMI medium containing 10% fetal calf serum and were incubated (37° C., 5% CO2) 19 hours in 6-well plates (2 ml/well, 5 million PBMC). Incubations were carried out in the presence of 10 μg/ml E.coli lipopolysaccharide (LPS, 026:B6 serotype; Sigma) without adding any drug (control) or adding Triflusal or HTB (0.1-5 mM). Prior to incubations, cell viability controls were performed using the Trypan Blue exclusion assay. […]

[4] = Cell viability of 143.98.2 cells (EZ4U); assay type: cell-based; details: human, read-out: Percentage of cell viability
Method: as §1, §2, §3

NF-κB [5] = assay: NF-κB activation in brain cells of post-natal Long Evans black-hooded rats (NMDA lesion); assay type: in vivo, rat
Method: This study was carried out using post-natal (P9) Long Evans black-hooded rats. Each group consisted of 6 animals subjected to an experimental lesion, plus two control animals of the same age. The experimental lesion was induced by intracortical injection (sensorimotor area) of N-methyl-D-aspartate (NMDA), which causes a marked local neuronal degeneration. Triflusal (30 mg/kg) was administered orally in three doses (from day 7 to 9) every 24 hours. Glial reactivity was induced by NMDA injection at postnatal day 9, one hour after the last triflusal dose. At different times (2-24 h) after this last dose, animals were killed, brains were extracted and cut in a cryostat and sections were processed using immunocytochemical and histochemical techniques to determine NF-κB activation in microglia and astroglia using double staining: NF-κB-lectin and NF-κB-GFPA. In parallel, slices were cut on a vibratome to determine the degree of microglial and astroglial reactivity by histoenzymatic techniques (B. Castellano et al., J.Histochem. Cytochem., 1991, 39(5), 561-568).

For `O=C(O)c1ccc(C(F)(F)F)cc1O` [HTB, 2-hydroxy-4-trifluoromethylbenzoic acid], the “inhibition of the activation of NF-κB induced by LPS” value (NF-κB [1]) was “markedly inhibits”, the viability at 0 h, 1 mM ([2]; 1 mM HTB, 0 hours) was 100% and the viability at 2 h, 1 mM ([2]; 1 mM HTB, 2 hours) was 100%. It also gave a viability at 5 h, 1 mM ([2]; 1 mM HTB, 5 hours) of 98.8%, a viability at 24 h, 1 mM ([2]; 1 mM HTB, 24 hours) of 74.4% and a viability at 48 h, 1 mM ([2]; 1 mM HTB, 48 hours) of 39.6%. The viability at 72 h, 1 mM ([2]; 1 mM HTB, 72 hours) was 4.8%, the viability at 0 h, 3 mM ([2]; 3 mM HTB, 0 hours) was 100% and the viability at 2 h, 3 mM ([2]; 3 mM HTB, 2 hours) was 96.1%. The viability at 5 h, 3 mM ([2]; 3 mM HTB, 5 hours) was 92.6%, the viability at 24 h, 3 mM ([2]; 3 mM HTB, 24 hours) was 13.9% and the viability at 48 h, 3 mM ([2]; 3 mM HTB, 48 hours) was 7.5%. For the same compound, the cell viability [3] was at least 95%, the viability at 0 h, 1 mM ([4]; 143.98.2 cells (osteosarcoma), 1 mM HTB, 0 hours) was 100% and the viability at 2 h, 1 mM ([4]; 143.98.2 cells (osteosarcoma), 1 mM HTB, 2 hours) was 100%. It also gave a viability at 5 h, 1 mM ([4]; 143.98.2 cells (osteosarcoma), 1 mM HTB, 5 hours) of 100%, a viability at 24 h, 1 mM ([4]; 143.98.2 cells (osteosarcoma), 1 mM HTB, 24 hours) of 93.9% and a viability at 48 h, 1 mM ([4]; 143.98.2 cells (osteosarcoma), 1 mM HTB, 48 hours) of 83.2%. The viability at 72 h, 1 mM ([4]; 143.98.2 cells (osteosarcoma), 1 mM HTB, 72 hours) was 50.4%, the viability at 0 h, 3 mM ([4]; 143.98.2 cells (osteosarcoma), 3 mM HTB, 0 hours) was 100% and the viability at 2 h, 3 mM ([4]; 143.98.2 osteosarcoma cells, 3 mM HTB, 2 hours) was 98.1%. It also gave a viability at 5 h, 3 mM ([4]; 143.98.2 osteosarcoma cells, 3 mM HTB, 5 hours) of 82.7%, a viability at 24 h, 3 mM ([4]; 143.98.2 osteosarcoma cells, 3 mM HTB, 24 hours) of 52.2% and a viability at 48 h, 3 mM ([4]; 143.98.2 osteosarcoma cells, 3 mM HTB, 48 hours) of 16.1%.

For `CC(=O)Oc1cc(C(F)(F)F)ccc1C(=O)O` [triflusal, 2-Acetyloxy-4-trifluoromethylbenzoic acid, reference compound], the “NF-κB activation in astroglial and microglial cells after NMDA excitotoxic lesion” value (NF-κB [5]; 30 mg/kg p.o. pretreatment) was “completely inhibited” and the “basal (constitutive) NF-κB activation in cortical neurons of control animals” value (NF-κB [5]; triflusal 30 mg/kg orally, three doses every 24 hours) was “inhibited”.
